Among the data in PubChem BioAssay AID1219 (NMMLSC, 2008) are translocation response score values, retold here.

Records with an inconclusive call do not appear. The source made the active and inactive calls.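 How the source made its calls: active means score of 100, fluorescent reporter fully moved to nucleus as with estrogen, or estrogen effect fully blocked; inactive means score of 0 or 50, partial or no effect.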

The target in the assay is G-protein coupled estrogen receptor 1 (Homo sapiens) (UniProt Q99527). The assay can be described thus: GPR30 agonism via PIP3 reporter nuclear relocation, confirmation, orthogonal assay for GPR30 ligand project, imaging, Cos7 GPR30-GFP, PH-RFP, Akt PH domain (AID 1219). The following applies: at 10 µM, active compounds read high.
As for `Cc1cc(-c2nn3c(-c4ccccc4)nnc3s2)c2ccccc2n1`, the translocation response score was 100.

Consider `Nc1ncnc2c1ncn2C1CCC(CO)C(O)C1` (configuration not stated), for which the translocation response score was 50 (inactive).

For `COc1cccc(NS(=O)(=O)c2ccc3c(c2)C2C=CCC2C(c2ccc(C(=O)O)cc2)N3)c1` (configuration not stated), the translocation response score is 50 (inactive).

`O=C(O)c1cc(Cl)c2c(c1)[C@@H]1C=CC[C@@H]1[C@H](c1ccc(S(=O)(=O)N3CCOCC3)cc1)N2`: the translocation response score was 50 (inactive).

Turning to `COc1ccccc1N1CCN(C(=O)c2ccc3nc(-c4ccco4)c(-c4ccco4)nc3c2)CC1`, the translocation response score is 100.

In the case of `Cc1cc(C)c2c(c1)[C@@H]1C=CC[C@@H]1[C@H](c1ccc(S(=O)(=O)N3CCOCC3)cc1)N2`, the translocation response score was 100.

Take `O=C(O)c1ccc2c(c1)C1C(Cl)C(Sc3ccccc3[N+](=O)[O-])CC1C(c1cccc([N+](=O)[O-])c1)N2` (configuration not stated): the translocation response score is 0 (inactive).
